According to publication PMC7337386 (bioRxiv, 2020):
Entries after “also recorded” stand apart in the source; their conditions may differ.

Assays:
[1] = test system: SARS-CoV-2 (USA_WA1/2020); assay: SARS-CoV-2 viral cytopathic effect assay; type: cell-based; conditions: for interaction with remdesivir / interaction with remdesivir at high concentrations: in combination with remdesivir; for interaction with remdesivir / interaction with nitazoxanide: CPE assay; for interaction with nitazoxanide: in combination with nitazoxanide; for maximum rescue of CPE, drug alone: single agent
SARS-CoV-2 = conditions: single agent; cited from earlier work
[2] = cited from earlier work; for time of peak concentration: after oral administration
[3] = healthy adults; cited from earlier work

Row | Compound | interaction with remdesivir [1] | interaction with remdesivir at high concentrations [1] | time of peak concentration [2] [min] | interaction with nitazoxanide [1] | maximum rescue of CPE, drug alone [1] | other results
1 | OC(c1cc(C(F)(F)F)nc2c(C(F)(F)F)cccc12)C1CCCCN1 (centres unmarked) [Mefloquine] | strong antagonistic effect | synergize | – | – | – | –
2 | CCN(CC)Cc1cc(Nc2ccnc3cc(Cl)ccc23)ccc1O [Amodiaquine] | strong antagonistic effect | synergize | ≤ 30 | significant synergy; also recorded: notable synergism | 40–60% | loss of potency in Calu-3 (TMPRSS2+) versus Vero E6 (SARS-CoV-2): > 10 fold; half-life [2]: ~ 3 hours
3 | CCC(CC)COC(=O)[C@H](C)N[P@](=O)(OC[C@H]1O[C@@](C#N)(c2ccc3c(N)ncnn23)[C@H](O)[C@@H]1O)Oc1ccccc1 [Remdesivir] | – | – | – | significant synergy; also recorded: notable synergism | 40–60% | –
4 | CC(=O)Oc1ccccc1C(=O)Nc1ncc([N+](=O)[O-])s1 [Nitazoxanide] | – | – | – | – | 40–60% | toxicity (Vero E6 cells; 10 μM): ~ 20%; cytotoxicity (Vero E6 cells; concentration below 5 μM): not cytotoxic; tolerability [3]: well tolerated
5 | CCOC(=O)c1c(CSc2ccccc2)n(C)c2cc(Br)c(O)c(CN(C)C)c12 [Arbidol] | – | synergize | – | – | – | concentrations showing synergism with remdesivir [1]: 3 to 10 µM
6 | CCNCc1cc(Nc2ccnc3cc(Cl)ccc23)ccc1O [monodesethyl-amodiaquine] | – | – | 120 | – | – | peak concentration ([2]; after oral administration of amodiaquine): ~ 500 nM; half-life in blood plasma [2]: 220 to 432 h
